Measurements as given in patent publication US10626144B2, “Peptide derivatives and uses thereof” (Nosopharm, priority 2014, dated 2020).
Square brackets hold non-standard residues; d marks the D form. Peptide text beside a SMILES is read from it. * marks the point of attachment. Phe(4-NH2) = Nc1ccc(C[C@H](N)C(=O)O)cc1; Dab(3S-OH) = NC[C@H](O)[C@H](N)C(=O)O; 2Pal = N[C@@H](Cc1ccccn1)C(=O)O; 3Pal = N[C@@H](Cc1cccnc1)C(=O)O; 4Pal = N[C@@H](Cc1ccncc1)C(=O)O; ΔZArg = N=C(N)NCC/C=C(\N)C(=O)O; Cit = NC(=O)NCCC[C@H](N)C(=O)O; aThr = C[C@H](O)[C@H](N)C(=O)O; AllylGly = C=CC[C@H](N)C(=O)O; NMeK = CN[C@@H](CCCCN)C(=O)O; hLys = NCCCCC[C@H](N)C(=O)O; dOrn = NCCC[C@@H](N)C(=O)O; NH(CH2)4NH2 = NCCCCN*

Legend:
Assay in all cases: MIC, broth microdilution (CLSI), reference strain
Settings in all cases: CAMHB
[1] = tested on: Pseudomonas aeruginosa ATCC 27853
[2] = tested on: Escherichia coli ATCC 25922
[3] = tested on: Staphylococcus aureus ATCC 13709
[4] = tested on: Acinetobacter baumannii ATCC 19606

SMILES: C[C@H](NC(=O)[C@@H](NC(=O)[C@@H](N)CCCCN)[C@@H](O)CN)C(=O)NCC(=O)N[C@H](CCCN)C(=O)N1CCC[C@H]1C(=O)N[C@@H](Cc1ccc(N)cc1)C(=O)N[C@@H](CCCCN)C(=O)N/C(=C\CCNC(=N)N)C(=O)O [24.105] (H-K[Dab(3S-OH)]AG[dOrn]P[Phe(4-NH2)]K[ΔZArg]-OH)
- Pa: MIC Pseudomonas aeruginosa ATCC 27853 [1]: − (>32 μg/mL)
- Ec: MIC Escherichia coli ATCC 25922 [2]: + (≤32 μg/mL)
- Sa: MIC Staphylococcus aureus ATCC 13709 [3]: + (≤32 μg/mL)
- Ab: MIC Acinetobacter baumannii ATCC 19606 [4]: − (>32 μg/mL)

SMILES: C[C@H](NC(=O)[C@@H](NC(=O)[C@@H](N)CCCCN)[C@@H](O)CN)C(=O)NCC(=O)N[C@H](CCCN)C(=O)N1CCC[C@H]1C(=O)N[C@@H](Cc1ccccn1)C(=O)N[C@@H](CCCCN)C(=O)N/C(=C\CCNC(=N)N)C(=O)O [24.106] (H-K[Dab(3S-OH)]AG[dOrn]P[2Pal]K[ΔZArg]-OH)
- Pa: MIC Pseudomonas aeruginosa ATCC 27853 [1]: − (>32 μg/mL)
- Ec: MIC Escherichia coli ATCC 25922 [2]: + (≤32 μg/mL)
- Sa: MIC Staphylococcus aureus ATCC 13709 [3]: + (≤32 μg/mL)
- Ab: MIC Acinetobacter baumannii ATCC 19606 [4]: − (>32 μg/mL)

SMILES: C[C@H](NC(=O)[C@@H](NC(=O)[C@@H](N)CCCCN)[C@@H](O)CN)C(=O)NCC(=O)N[C@H](CCCN)C(=O)N1CCC[C@H]1C(=O)N[C@@H](Cc1cccnc1)C(=O)N[C@@H](CCCCN)C(=O)N/C(=C\CCNC(=N)N)C(=O)O [24.107] (H-K[Dab(3S-OH)]AG[dOrn]P[3Pal]K[ΔZArg]-OH)
- Pa: MIC Pseudomonas aeruginosa ATCC 27853 [1]: − (>32 μg/mL)
- Ec: MIC Escherichia coli ATCC 25922 [2]: + (≤32 μg/mL)
- Sa: MIC Staphylococcus aureus ATCC 13709 [3]: + (≤32 μg/mL)
- Ab: MIC Acinetobacter baumannii ATCC 19606 [4]: − (>32 μg/mL)

SMILES: C[C@H](NC(=O)[C@@H](NC(=O)[C@@H](N)CCCCN)[C@@H](O)CN)C(=O)NCC(=O)N[C@H](CCCN)C(=O)N1CCC[C@H]1C(=O)N[C@@H](Cc1ccncc1)C(=O)N[C@@H](CCCCN)C(=O)N/C(=C\CCNC(=N)N)C(=O)O [24.108] (H-K[Dab(3S-OH)]AG[dOrn]P[4Pal]K[ΔZArg]-OH)
- Pa: MIC Pseudomonas aeruginosa ATCC 27853 [1]: − (>32 μg/mL)
- Ec: MIC Escherichia coli ATCC 25922 [2]: − (>32 μg/mL)
- Sa: MIC Staphylococcus aureus ATCC 13709 [3]: + (≤32 μg/mL)
- Ab: MIC Acinetobacter baumannii ATCC 19606 [4]: − (>32 μg/mL)

SMILES: C[C@H](NC(=O)[C@@H](NC(=O)[C@@H](N)CCCCN)[C@@H](O)CN)C(=O)NCC(=O)N[C@H](CCCN)C(=O)N1CCC[C@H]1C(=O)N[C@H](C(=O)N[C@@H](CCCCN)C(=O)N/C(=C\CCNC(=N)N)C(=O)O)[C@H](C)O [24.110] (H-K[Dab(3S-OH)]AG[dOrn]P[aThr]K[ΔZArg]-OH)
- Pa: MIC Pseudomonas aeruginosa ATCC 27853 [1]: − (>32 μg/mL)
- Ec: MIC Escherichia coli ATCC 25922 [2]: − (>32 μg/mL)
- Sa: MIC Staphylococcus aureus ATCC 13709 [3]: + (≤32 μg/mL)
- Ab: MIC Acinetobacter baumannii ATCC 19606 [4]: − (>32 μg/mL)

SMILES: C=CC[C@H](NC(=O)[C@@H]1CCCN1C(=O)[C@@H](CCCN)NC(=O)CNC(=O)[C@H](C)NC(=O)[C@@H](NC(=O)[C@@H](N)CCCCN)[C@@H](O)CN)C(=O)N[C@@H](CCCCN)C(=O)N/C(=C\CCNC(=N)N)C(=O)O [24.111] (H-K[Dab(3S-OH)]AG[dOrn]P[AllylGly]K[ΔZArg]-OH)
- Pa: MIC Pseudomonas aeruginosa ATCC 27853 [1]: − (>32 μg/mL)
- Ec: MIC Escherichia coli ATCC 25922 [2]: + (≤32 μg/mL)
- Sa: MIC Staphylococcus aureus ATCC 13709 [3]: ++ (≤8 μg/mL)
- Ab: MIC Acinetobacter baumannii ATCC 19606 [4]: − (>32 μg/mL)

SMILES: C[C@H](NC(=O)[C@@H](NC(=O)[C@@H](N)CCCCN)[C@@H](O)CN)C(=O)NCC(=O)N[C@H](CCCN)C(=O)N1CCC[C@H]1C(=O)N[C@@H](CCCNC(N)=O)C(=O)N[C@@H](CCCCN)C(=O)N/C(=C\CCNC(=N)N)C(=O)O [24.116] (H-K[Dab(3S-OH)]AG[dOrn]P[Cit]K[ΔZArg]-OH)
- Pa: MIC Pseudomonas aeruginosa ATCC 27853 [1]: − (>32 μg/mL)
- Ec: MIC Escherichia coli ATCC 25922 [2]: − (>32 μg/mL)
- Sa: MIC Staphylococcus aureus ATCC 13709 [3]: + (≤32 μg/mL)
- Ab: MIC Acinetobacter baumannii ATCC 19606 [4]: − (>32 μg/mL)

SMILES: C[C@H](NC(=O)[C@@H](NC(=O)[C@@H](N)CCCCN)[C@@H](O)CN)C(=O)NCC(=O)N[C@H](CCCN)C(=O)N1CCC[C@H]1C(=O)N[C@@H](CCC(N)=O)C(=O)N[C@@H](CCCCN)C(=O)N/C(=C\CCNC(=N)N)C(=O)O [24.117] (H-K[Dab(3S-OH)]AG[dOrn]PQK[ΔZArg]-OH)
- Pa: MIC Pseudomonas aeruginosa ATCC 27853 [1]: − (>32 μg/mL)
- Ec: MIC Escherichia coli ATCC 25922 [2]: − (>32 μg/mL)
- Sa: MIC Staphylococcus aureus ATCC 13709 [3]: + (≤32 μg/mL)
- Ab: MIC Acinetobacter baumannii ATCC 19606 [4]: − (>32 μg/mL)

SMILES: C[C@H](NC(=O)[C@@H](NC(=O)[C@@H](N)CCCCN)[C@@H](O)CN)C(=O)NCC(=O)N[C@H](CCCN)C(=O)N1CCC[C@H]1C(=O)N[C@@H](CCC(=O)O)C(=O)N[C@@H](CCCCN)C(=O)N/C(=C\CCNC(=N)N)C(=O)N[C@@H](CCCCN)C(=O)NCCCCN [24.118] (H-K[Dab(3S-OH)]AG[dOrn]PEK[ΔZArg]K-{NH(CH2)4NH2})
- Pa: MIC Pseudomonas aeruginosa ATCC 27853 [1]: − (>32 μg/mL)
- Ec: MIC Escherichia coli ATCC 25922 [2]: − (>32 μg/mL)
- Sa: MIC Staphylococcus aureus ATCC 13709 [3]: ++ (≤8 μg/mL)
- Ab: MIC Acinetobacter baumannii ATCC 19606 [4]: − (>32 μg/mL)

SMILES: COC(=O)CC[C@H](NC(=O)[C@@H]1CCCN1C(=O)[C@@H](CCCN)NC(=O)CNC(=O)[C@H](C)NC(=O)[C@@H](NC(=O)[C@@H](N)CCCCN)[C@@H](O)CN)C(=O)N[C@@H](CCCCN)C(=O)N/C(=C\CCNC(=N)N)C(=O)O [24.120] (H-K[Dab(3S-OH)]AG[dOrn]PE(OMe)K[ΔZArg]-OH)
- Pa: MIC Pseudomonas aeruginosa ATCC 27853 [1]: − (>32 μg/mL)
- Ec: MIC Escherichia coli ATCC 25922 [2]: + (≤32 μg/mL)
- Sa: MIC Staphylococcus aureus ATCC 13709 [3]: − (>32 μg/mL)
- Ab: MIC Acinetobacter baumannii ATCC 19606 [4]: − (>32 μg/mL)

SMILES: C[C@H](NC(=O)[C@@H](NC(=O)[C@@H](N)CCCCN)[C@@H](O)CN)C(=O)NCC(=O)N[C@H](CCCN)C(=O)N1CCC[C@H]1C(=O)N[C@@H](Cc1cnc[nH]1)C(=O)N[C@@H](CCCCCN)C(=O)N[C@H](CCCNC(=N)N)C(N)=O [24.121] (H-K[Dab(3S-OH)]AG[dOrn]PH[hLys][dR]-NH2)
- Pa: MIC Pseudomonas aeruginosa ATCC 27853 [1]: − (>32 μg/mL)
- Ec: MIC Escherichia coli ATCC 25922 [2]: − (>32 μg/mL)
- Sa: MIC Staphylococcus aureus ATCC 13709 [3]: ++ (≤8 μg/mL)
- Ab: MIC Acinetobacter baumannii ATCC 19606 [4]: − (>32 μg/mL)

SMILES: C[C@H](NC(=O)[C@@H](NC(=O)[C@@H](N)CCCCN)[C@@H](O)CN)C(=O)NCC(=O)N[C@H](CCCN)C(=O)N1CCC[C@H]1C(=O)N[C@@H](Cc1cnc[nH]1)C(=O)N[C@@H](CCCCN)C(=O)N[C@H](CCCNC(=N)N)C(=O)O [24.122] (H-K[Dab(3S-OH)]AG[dOrn]PHK[dR]-OH)
- Pa: MIC Pseudomonas aeruginosa ATCC 27853 [1]: − (>32 μg/mL)
- Ec: MIC Escherichia coli ATCC 25922 [2]: − (>32 μg/mL)
- Sa: MIC Staphylococcus aureus ATCC 13709 [3]: − (>32 μg/mL)
- Ab: MIC Acinetobacter baumannii ATCC 19606 [4]: − (>32 μg/mL)

SMILES: CC[C@H](C)[C@H](NC(=O)/C(=C/CCNC(=N)N)NC(=O)[C@H](CCCCN)NC(=O)[C@H](Cc1cnc[nH]1)NC(=O)[C@@H]1CCCN1C(=O)[C@@H](CCCN)NC(=O)CNC(=O)[C@H](C)NC(=O)[C@@H](NC(=O)[C@@H](N)CCCCN)[C@@H](O)CN)C(=O)O [24.123] (H-K[Dab(3S-OH)]AG[dOrn]PHK[ΔZArg]I-OH)
- Pa: MIC Pseudomonas aeruginosa ATCC 27853 [1]: − (>32 μg/mL)
- Ec: MIC Escherichia coli ATCC 25922 [2]: − (>32 μg/mL)
- Sa: MIC Staphylococcus aureus ATCC 13709 [3]: + (≤32 μg/mL)
- Ab: MIC Acinetobacter baumannii ATCC 19606 [4]: − (>32 μg/mL)

SMILES: CN[C@@H](CCCCN)C(=O)N[C@H](C(=O)N[C@@H](C)C(=O)NCC(=O)N[C@H](CCCN)C(=O)N1CCC[C@H]1C(=O)N[C@@H](Cc1cnc[nH]1)C(=O)N[C@@H](CCCCN)C(=O)N/C(=C\CCNC(=N)N)C(=O)O)[C@@H](O)CN [24.126] (H-[NMeK][Dab(3S-OH)]AG[dOrn]PHK[ΔZArg]-OH)
- Pa: MIC Pseudomonas aeruginosa ATCC 27853 [1]: − (>32 μg/mL)
- Ec: MIC Escherichia coli ATCC 25922 [2]: + (≤32 μg/mL)
- Sa: MIC Staphylococcus aureus ATCC 13709 [3]: + (≤32 μg/mL)
- Ab: MIC Acinetobacter baumannii ATCC 19606 [4]: − (>32 μg/mL)
